One experiment concerns A2780. The experiment can be described thus: Cell Titer Glo 2.0 relative cell viability, 72 h (Example 10). The conditions noted are these: Homo sapiens, A2780 cell line, read-out: Abs IC50. It counts as cell-based. The procedure: (§1) The present Example provides experimental evidence that cell lines predicted to be sensitive to a Chk1 inhibitor (e.g., prexasertib, are also sensitive to Wee1 inhibitors (e.g., adavosertib (AZD1775, MK1775) and azenosertib (Zn-C3)). Cell lines were treated with increasing doses of either prexasertib, adavosertib, or azenosertib, and relative cell viability against a DMSO control was assessed 72 h after drug treatment using Cell Titer Glo 2.0 (Promega) and a SpectraMax microplate reader. The results are shown in FIGS. 19A-19C. Error bars represent standard deviations from quadruplicate samples.

A further experiment relates to BxPC3. The description is as above. Type of experiment: cell-based. The conditions noted are these: Homo sapiens, BXPC-3, BxPC3 cell line, read-out: Abs IC50. The procedure: as §1
The next experiment deals with A375. The description is as above. Type of experiment: cell-based. The conditions noted are these: Homo sapiens, A-375, A375 cell line, read-out: Abs IC50. The procedure: as §1
The test system of the next experiment is OVCAR3. Described as above. It counts as cell-based. The conditions noted are these: Homo sapiens, OVCAR-3, OVCAR3 cell line, read-out: Abs IC50. The procedure: as §1
Another experiment concerns T47D. The description is as above. Type of experiment: cell-based. Conditions: Homo sapiens, T47D cell line, read-out: Abs IC50. As for the experimental part:
as §1

The subject of another experiment is PC3. The description is as above. It counts as cell-based. The conditions noted are these: Homo sapiens, PC-3, PC3 cell line, read-out: Abs IC50. The procedure: as §1
The subject of another experiment is HeLa. The experiment is described as above. Type of experiment: cell-based. The conditions noted are these: Homo sapiens, HeLa cell line, read-out: Abs IC50. As for the experimental part: as §1
Experiment [1] has as its system OVCAR3-P and OVCAR3-R cells. The experiment can be described thus: Global pan-/phospho-proteomic analysis and western blot after gemcitabine (Example 12). It counts as cell-based, human. The conditions noted are these: gemcitabine 10 nM for 24 hours vs DMSO control. As for the experimental part: To determine whether treatment with gemcitabine can alter the abundance of biomarkers associated with a Response-Predictive Signature, a global pan-proteomic and phosphor-proteomic analysis was performed to compare treatment with low dose gemcitabine (10 nM for 24 hours) to DMSO control in both OVCAR3-P and OVCAR3-R cells.

Results on three molecules are retold here after US20260166029A1, “METHODS AND SYSTEMS FOR TREATING DISEASE USING AN ATR/CHK1 SIGNALING PATHWAY INHIBITOR” (Acrivon Therapeutics, Inc., priority 2022, published 2026).

Where only a bound is given, the exact number is not on record here.

As for `C=CCn1c(=O)c2cnc(Nc3ccc(N4CCN(C)CC4)cc3)nc2n1-c1ccc2c(n1)[C@@](O)(CC)CC2` [Azenosertib], the IC50 was 900 nM in the experiment with A2780; 448 nM in the experiment with BxPC3; 239 nM with A375; 233 nM in the experiment on OVCAR3; greater than 10 µM in the experiment on T47D; greater than 10 µM in the experiment with PC3. The IC50 in the experiment with HeLa came out at 604 nM.
As to `C=CCn1c(=O)c2cnc(Nc3ccc(N4CCN(C)CC4)cc3)nc2n1-c1cccc(C(C)(C)O)n1` [Adavosertib], the concentration for half-maximal inhibition (IC50) with A2780 is 653 nM; in the experiment on BxPC3 it was 360 nM; with A375, 170 nM; in the experiment with OVCAR3, 237 nM; with T47D it was greater than 10 µM; in the experiment with PC3, greater than 10 µM. Besides, in the experiment with HeLa, the 50% inhibitory concentration (IC50) is 328 nM.
As to `Nc1ccn([C@@H]2O[C@H](CO)[C@@H](O)C2(F)F)c(=O)n1` [gemcitabine, 2′,2′-difluoro 2′-deoxycytidine], in experiment [1], the “Ser296 phosphorylated Chk1 (BM1) abundance” value is given as “significant increase” and the “abundance of total cyclin E1 (BM3)” value was “significant increase”.
